Measured values published in US10669271B2, “Heterocyclic compounds as immunomodulators” (Incyte Corporation, priority 2018, dated 2020).

Experiments:
PD-1/PD-L1 = PD-1/PD-L1 (Homo sapiens (Human), UniProt Q9NZQ7); test: Homogeneous Time-Resolved Fluorescence (HTRF) PD-1/PD-L1 binding assay; settings: recombinant human PD-1 and PD-L1, 25° C., pH 7.4
In short: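 His-tagged PD-L1 (19-238, 10 nM) and Fc-tagged PD-1 (25-167, 3 nM) preincubated 40 min with inhibitors in PBS pH 7.4, 0.05% Tween-20, 0.1% BSA, 1% DMSO, 25 °C. Eu anti-IgG (1 nM) and anti-His-APC (20 nM) added, 60 min at 25 °C; 665/620 nm ratio fitted for IC50.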

PD-L1 = PD-L1 (Homo sapiens (Human), UniProt Q9NZQ7); test: PD-L1 whole blood internalization assay; assay type: cell-based; settings: 1 ng/ml human interferon γ, PD-L1 expression on CD14+ cells, read-out: Whole Blood (24 HR) IC50
In short: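 Normal human whole blood was exposed to a range of test compound concentrations together with 1 ng/ml human interferon γ, then stained for PD-L1 and CD14 for 30 minutes at room temperature in the dark. After red cell lysis/fixation and centrifugation, CD14+ cells were analyzed by flow cytometry for PD-L1 MFI, and IC50 values came from percent inhibition versus log concentration fits.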

[1] = test system: PD-L1 aAPC/CHO-K1 cells and Jurkat-PD-1-NFAT effector cells; test: Nuclear factor of activated T-cells (NFAT) assay; assay type: cell-based; settings: Cricetulus griseus; PD-L1 aAPC/CHO-K1 cells with Jurkat-PD-1-NFAT effector cells, 24 hours
In short: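 PD-L1 aAPC/CHO-K1 cells co-cultured with Jurkat-PD-1-NFAT effector cells in RPMI 1640 with 1% FBS, compound top concentration 2 μM, 0.4% DMSO, 24 h at 37 °C. Bio-Glo luminescence read; fold induction normalized to DMSO wells, maximum induction relative to control compound, EC50 from percent control activity versus log concentration.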

[2] = test system: U2OS/PD-L1 cells and Jurkat-PD-1-SHP cells; test: Src homology region 2 domain-containing phosphatase (SHP) assay; assay type: cell-based; settings: Homo sapiens; U2OS/PD-L1 cells with Jurkat-PD-1-SHP cells, 2 hours
In short: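 U2OS/PD-L1 cells (5000/well) in RPMI1640 with 1% FBS were treated with serially diluted compounds (0.05% DMSO final) and co-incubated with 5,000 Jurkat-PD-1-SHP cells for 2 h at 37 °C. PathHunter enzyme-fragment chemiluminescence was read after 1 h at room temperature. IC50 came from percent-of-control activity versus log concentration.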

Sequence of PD-L1 (Q9NZQ7 19-290): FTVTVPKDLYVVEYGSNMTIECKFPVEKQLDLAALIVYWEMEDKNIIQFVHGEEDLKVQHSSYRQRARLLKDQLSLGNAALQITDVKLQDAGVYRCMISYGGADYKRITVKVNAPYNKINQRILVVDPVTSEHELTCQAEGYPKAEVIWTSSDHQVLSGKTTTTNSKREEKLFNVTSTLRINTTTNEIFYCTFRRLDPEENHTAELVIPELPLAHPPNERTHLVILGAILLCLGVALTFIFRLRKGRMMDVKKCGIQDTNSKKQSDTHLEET
Sequence of PD-1/PD-L1 (Q9NZQ7 19-238): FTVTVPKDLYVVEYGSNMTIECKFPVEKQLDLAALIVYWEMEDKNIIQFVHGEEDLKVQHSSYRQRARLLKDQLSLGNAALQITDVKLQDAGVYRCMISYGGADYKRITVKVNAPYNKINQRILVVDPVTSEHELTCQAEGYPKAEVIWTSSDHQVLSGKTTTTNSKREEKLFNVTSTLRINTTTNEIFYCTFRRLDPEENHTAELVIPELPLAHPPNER

Row | IC50 (PD-1/PD-L1) [nM] | IC50 (PD-L1) [nM] | IC50 [2] [nM] | Structure (SMILES) | EC50 [1] [nM]
1 | ≤ 10 | 10 to 100 | ≤ 10 | Cc1nc(Nc2cccc(-c3cccc(-c4nc5cc(CN6CC[C@@](C)(C(=O)O)C6)cc(C#N)c5o4)c3C)c2C)c2ncc(CN3CC[C@@H](O)C3)cc2n1 [Example 11, (R)-1-((7-cyano-2-(3′-(7-(((R)-3-hydroxypyrrolidin-1-yl)methyl)-2-methylpyrido[3,2-d]pyrimidin-4-ylamino)-2,2′-dimethylbiphenyl-3-yl)benzo[d]oxazol-5-yl)methyl)-3-methylpyrrolidine-3-carboxylic Acid] | 10 to 100
2 | ≤ 10 | 10 to 100 | ≤ 10 | Cc1nc(Nc2cccc(-c3cccc(-c4nc5cc(CN6CC[C@@H](C(=O)O)C6)cc(C#N)c5o4)c3C)c2C)c2ncc(CN3CC[C@@](C)(O)C3)cc2n1 [Example 7, (R)-1-((7-cyano-2-(3′-(7-(((R)-3-hydroxy-3-methylpyrrolidin-1-yl)methyl)-2-methylpyrido[3,2-d]pyrimidin-4-ylamino)-2,2′-dimethylbiphenyl-3-yl)benzo[d]oxazol-5-yl)methyl)pyrrolidine-3-carboxylic Acid] | 10 to 100
3 | ≤ 10 | 10 to 100 | ≤ 10 | Cc1nc(Nc2cccc(-c3cccc(-c4nc5cc(CN6CC[C@@](C)(C(=O)O)C6)cc(C#N)c5o4)c3C)c2C)c2ncc(CN3CC[C@](C)(O)C3)cc2n1 [Example 13, (R)-1-((7-cyano-2-(3′-(7-(((S)-3-hydroxy-3-methylpyrrolidin-1-yl)methyl)-2-methylpyrido[3,2-d]pyrimidin-4-ylamino)-2,2′-dimethylbiphenyl-3-yl)benzo[d]oxazol-5-yl)methyl)-3-methylpyrrolidine-3-carboxylic Acid] | 10 to 100
4 | ≤ 10 | 10 to 100 | ≤ 10 | Cc1nc(Nc2cccc(-c3cccc(-c4nc5cc(CN6CCC(C(=O)O)CC6)cc(C#N)c5o4)c3C)c2C)c2ncc(CN3CC[C@@H](O)C3)cc2n1 [Example 1, (R)-1-((7-cyano-2-(3′-(7-((3-hydroxypyrrolidin-1-yl)methyl)-2-methylpyrido[3,2-d]pyrimidin-4-ylamino)-2,2′-dimethylbiphenyl-3-yl)benzo[d]oxazol-5-yl)methyl)piperidine-4-carboxylic Acid] | 10 to 100
5 | ≤ 10 | 10 to 100 | ≤ 10 | Cc1c(Nc2nc(C(F)F)nc3cc(CN4CC[C@](C)(O)C4)cnc23)cccc1-c1cccc(-c2nc3cc(CN4CCC(C(=O)O)CC4)cc(C#N)c3o2)c1C [Example 31, (S)-1-((7-cyano-2-(3′-(2-(difluoromethyl)-7-((3-hydroxy-3-methylpyrrolidin-1-yl)methyl)pyrido[3,2-d]pyrimidin-4-ylamino)-2,2′-dimethylbiphenyl-3-yl)benzo[d]oxazol-5-yl)methyl)piperidine-4-carboxylic Acid] | ≤ 10
6 | ≤ 10 | 10 to 100 | ≤ 10 | Cc1c(Nc2nc(N)nc3cc(CN4CC[C@@H](O)C4)cnc23)cccc1-c1cccc(-c2nc3cc(CN4CCC(C(=O)O)CC4)cc(C#N)c3o2)c1C [Example 29, (R)-1-((2-(3′-(2-amino-7-((3-hydroxypyrrolidin-1-yl)methyl)pyrido[3,2-d]pyrimidin-4-ylamino)-2,2′-dimethylbiphenyl-3-yl)-7-cyanobenzo[d]oxazol-5-yl)methyl)piperidine-4-carboxylic Acid] | 10 to 100
7 | ≤ 10 | 10 to 100 | ≤ 10 | Cc1c(Nc2nc(C(F)F)nc3cc(CN4CC[C@@H](O)C4)cnc23)cccc1-c1cccc(-c2nc3cc(CN4CC[C@@](C)(C(=O)O)C4)cc(C#N)c3o2)c1C [Example 18, (R)-1-((7-cyano-2-(3′-(2-(difluoromethyl)-7-(((R)-3-hydroxypyrrolidin-1-yl)methyl)pyrido[3,2-d]pyrimidin-4-ylamino)-2,2′-dimethylbiphenyl-3-yl)benzo[d]oxazol-5-yl)methyl)-3-methylpyrrolidine-3-carboxylic Acid] | 10 to 100
